This experiment concerns 485176-168-R4-J1-PDC spheroids with HUVEC/MSC, viability. Nature of the experiment: Anticancer human tumor 485176-168-R4-J1-PDC patient-derived pancreatic adenocarcinoma cell line growth inhibition [GQUAD]. The conditions noted are these: for viability, T/C: stronger effect = lower value. The source says:
DNA G-quadruplex Stabilizer Agents in Combinations in Complex Spheroids
A high-throughput screen of multi-cell type tumor spheroids was designed to identify active combinations of DNA G-quadruplex stabilizer agents and targeted small molecules. Complex spheroids include a stromal component modeled by human endothelial cells (HUVEC) and fibroblasts modeled by human mesenchymal stem cells (MSCs). The concentration ranges selected for each drug and investigational agent were based upon clinically achievable concentrations if the clinical Cmax of the agent was known.
Compounds. The drugs and investigational agents: pidnarulex (CX-5461; NSC782164), APTO-253 (NSC789042), BRACO-19 (NSC847499), peposertib (NSC802822), ceralasertib (NSC780249), elimusertib (NSC800525), camonsertib (NSC841442), AZD-1390 (NSC803789), olaparib (NSC753686), talazoparib (NSC767125), ART-558 (NSC835418), sotorasib (NSC818433), MRTX-1133 (NSC836407), SN-38 (NSC673596), topotecan (NSC609699), etoposide (NSC141540), doxorubicin (NSC123127), gemcitabine (NSC613327), 5-fluorouracil (NSC19893), paclitaxel (NSC125973), vemurafenib (NSC761431), panobinostat (NSC761190), R-306465 (JNJ-16241199; NSC773264), adavosertib (NSC754352), TP-3654 (NSC805149), carboplatin (NSC241240), KSQ-4279 (NSC840948), and staurosporine (NSC755774) were obtained from the National Cancer Institute (NCI) Developmental Therapeutics Program Chemical Repository (34). The FDA-approved anticancer drug set is available from the NCI Developmental Therapeutics Program. […] The stock solutions were prepared in dimethyl sulfoxide (DMSO, Sigma-Aldrich, St. Louis, MO, cat. D2650) at 800-fold the tested concentration and stored at -70 degrees C prior to their use. All drugs and investigational agents were tested over a range starting from a high concentration at or near the clinical Cmax and decreasing in half-log increments. If the clinical Cmax for an agent had not been determined, the highest concentration tested was 10 microM.
2.3 Cell Culture. All cells were maintained in an incubator at 37 degrees C and 5% CO2 with 95% humidity. The PDC lines were cultured according to standard operating procedures established by the NCI PDMR. All PDCs were thawed and cultured in Matrigel-coated flasks prepared with a working solution of 1X Ham's F-12 nutrient mix, without supplementation (Invitrogen, cat. 11765054), 100 U/mL penicillin-streptomycin (Invitrogen, cat. 15140122), and 2.5% Matrigel (Corning Inc., cat. 354248) for the first three passages. The 857933-349-R-J2-PDC line was cultured in 6C/Colon 1B media, which includes advanced DMEM/F-12 (Thermo Fisher Scientific, cat. 12634028), 10 mM HEPES (Thermo Fisher Scientific, cat. 15630080), 1X GlutaMAX supplement (Thermo Fisher Scientific, cat. 35050061), 0.1 mg/mL primocin (InvivoGen, cat. ant-pm-2), 10% defined fetal bovine serum, heat inactivated (HyClone Laboratories Inc., cat. SH30070.03HI), 50% L-WRN conditioned media (ATCC, cat. CRL-3276), 1.25 mM N-Acetyl-L-cysteine (Sigma-Aldrich, cat. A9165), 10 mM nicotinamide (Sigma-Aldrich, cat. N0636), 1X B-27 supplement (Thermo Fisher Scientific, cat. 17504044), 1X N-2 supplement (Thermo Fisher Scientific, cat. 17502048), 10 microM Y-27632 dihydrochloride (Tocris Bioscience, cat. 1254), and 50 ng/mL human EGF recombinant protein (Thermo Fisher Scientific, cat. PHG0311). The 485176-168-R4-J1-PDC line was cultured in Panc media, which includes all 6C/Colon 1B media components plus 100 ng/mL human FGF-10 (Thermo Fisher Scientific, cat. 100-26), 500 nM SB-431542 (Selleckchem, cat. S1067), and gastrin (Tocris, cat. 3006).
[…]

Where “and” joins values, the source holds several entries; their conditions need not be identical. Equal entries are not always repeated.

The viability, T/C is the ratio of treated to control. Broadly, the IC50 is the concentration that inhibits the measured activity by half.
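Also: spheroids exposed to compounds for seven days before readout.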
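For viability, T/C in this document: percent viability relative to DMSO vehicle control wells as 100%.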

With `COc1cc(C2c3cc4c(cc3C(OC3OC5COC(C)OC5C(O)C3O)C3COC(=O)C23)OCO4)cc(OC)c1O` (stereo unspecified), the viability, T/C was 102% and 101% and 95% (compound 0.0316 µM); 80.2% and 68.8% and 67.7% (compound 0.1 µM); 46.6% and 39.1% and 39.6% (compound 0.316 µM); 39.9% and 38.8% and 40.8% (compound 1 µM); 25.9% and 24.6% and 23.1% (compound 3.16 µM); 13.2% and 13.4% and 11% (compound 10 µM). The IC50 (curve of compound) is 406 nM and 255 nM and 269 nM.

For `O=C(NO)c1cnc(N2CCN(S(=O)(=O)c3ccc4ccccc4c3)CC2)nc1` + Cc1[nH]c2ccc(F)cc2c1-c1nc2c3cccnc3c3ncccc3c2[nH]1, the IC50 reads like this: (curve of first compound, second compound 0.0316 µM) 511 nM; (curve of first compound, second compound 0.1 µM) 597 nM; (curve of first compound, second compound 0.316 µM) 557 nM; (curve of first compound, second compound 1 µM) 592 nM; (curve of first compound, second compound 3.16 µM) 1030 nM; (curve of first compound, second compound 10 µM) 1020 nM. Also, the viability, T/C reads like this: (second compound 0.0316 µM, first compound 0.0316 µM) 94.1%; (second compound 0.0316 µM, first compound 0.1 µM) 86.3%; (second compound 0.0316 µM, first compound 0.316 µM) 70.8%; (second compound 0.0316 µM, first compound 1 µM) 21.8%; (second compound 0.0316 µM, first compound 3.16 µM) 0.24%; (second compound 0.0316 µM, first compound 10 µM) 0.23%. For the same compound, the viability, T/C by setting is: (second compound 0.1 µM, first compound 0.0316 µM) 90.3%; (second compound 0.1 µM, first compound 0.1 µM) 98.4%; (second compound 0.1 µM, first compound 0.316 µM) 80.4%; (second compound 0.1 µM, first compound 1 µM) 25.1%; (second compound 0.1 µM, first compound 3.16 µM) 0.3%; (second compound 0.1 µM, first compound 10 µM) 0.19%. The viability, T/C reads like this: (second compound 0.316 µM, first compound 0.0316 µM) 122%; (second compound 0.316 µM, first compound 0.1 µM) 87.5%; (second compound 0.316 µM, first compound 0.316 µM) 67.1%; (second compound 0.316 µM, first compound 1 µM) 42.8%; (second compound 0.316 µM, first compound 3.16 µM) 0.2%; (second compound 0.316 µM, first compound 10 µM) 0.18%. The viability, T/C is 94.2% (second compound 1 µM, first compound 0.0316 µM); 84.7% (second compound 1 µM, first compound 0.1 µM); 68% (second compound 1 µM, first compound 0.316 µM); 37.6% (second compound 1 µM, first compound 1 µM); 0.32% (second compound 1 µM, first compound 3.16 µM); 0.18% (second compound 1 µM, first compound 10 µM). For the same compound, the viability, T/C is, setting by setting: (second compound 3.16 µM, first compound 0.0316 µM) 87.9%; (second compound 3.16 µM, first compound 0.1 µM) 79.9%; (second compound 3.16 µM, first compound 0.316 µM) 73.5%; (second compound 3.16 µM, first compound 1 µM) 52.3%; (second compound 3.16 µM, first compound 3.16 µM) 0.29%; (second compound 3.16 µM, first compound 10 µM) 0.21%. Further, the viability, T/C (second compound 10 µM, first compound 0.0316 µM) was 88.2%; the viability, T/C (second compound 10 µM, first compound 0.1 µM) was 71.7%; the viability, T/C (second compound 10 µM, first compound 0.316 µM) is 75.6%; the viability, T/C (second compound 10 µM, first compound 1 µM) is 50.9%; the viability, T/C (second compound 10 µM, first compound 3.16 µM) was 0.27%; the viability, T/C (second compound 10 µM, first compound 10 µM) was 0.37%.

Take `CC1COCCN1c1cc(C2(O)CC3CCC(C2)O3)c2cnn(-c3ccn[nH]3)c2n1` (stereo unspecified): the viability, T/C by setting is: (compound 0.0316 µM) 68% and 73.8% and 81.9%; (compound 0.1 µM) 32.8% and 40.7% and 53.4%; (compound 0.316 µM) 11.7% and 19.7% and 16.1%; (compound 1 µM) 8.14% and 9.02% and 10.2%; (compound 3.16 µM) 8.91% and 11.7% and 10.2%; (compound 10 µM) 9.41% and 8.55% and 9.34%. The IC50 (curve of compound) was 57 nM and 72.7 nM and 111 nM.

Values taken from PubChem BioAssay AID2060509 (Molecular Pharmacology Branch, DTP, NCI, 2025).
